From patent US20240190849A1, “AMINOPYRIMIDINE COMPOUNDS AND METHODS OF THEIR USE” (TYRA BIOSCIENCES, INC., priority 2021, published 2024) come the findings set out here.

Where only a bound is given, the exact number is not on record here.

Common to all, as to conditions: FGFR binding data
Assay [1] deals with T1, FGFR1 (Homo sapiens, UniProt P11362).
T1 construct: made in house; host or cells: E. coli derived from BL21, infected with T7 phage
Briefly: Kinase binding assay (kinase-tagged T7 phage, affinity beads, qPCR readout), FGFR1. The procedure: (§1) Kinase-tagged T7 phage strains were prepared in an E. coli host derived from the BL21 strain. E. coli were grown to log-phase and infected with T7 phage and incubated with shaking at 32° C. until lysis. The lysates were centrifuged and filtered to remove cell debris. Streptavidin-coated magnetic beads were treated with biotinylated small molecule ligands for 30 minutes at room temperature to generate affinity resins for kinase assays. The liganded beads were blocked with excess biotin and washed with blocking buffer SeaBlock (Pierce), 1% BSA, 0.05% Tween 20, 1 mM DTT to remove unbound ligand and to reduce non-specific binding. Binding reactions were assembled by combining kinases, liganded affinity beads, and test compounds in 1× binding buffer (20% SeaBlock, 0.17×PBS, 0.05% Tween 20, 6 mM DTT).
(§2) Test compounds were prepared as 111× stocks in 100% DMSO. Kds were determined using an 11-point 3-fold compound dilution series with three DMSO control points. All compounds for Kd measurements are distributed by acoustic transfer (non-contact dispensing) in 100% DMSO. The compounds were then diluted directly into the assays such that the final concentration of DMSO was 0.9%. All reactions performed in polypropylene 384-well plate. Each was a final volume of 0.02 ml. The assay plates were incubated at room temperature with shaking for 1 hour and the affinity beads were washed with wash buffer (1×PBS, 0.05% Tween 20). The beads were then re-suspended in elution buffer (1×PBS, 0.05% Tween 20, 0.5 μM non-biotinylated affinity ligand) and incubated at room temperature with shaking for 30 minutes. The kinase concentration in the eluates was measured by qPCR.
(§3) Binding constants were calculated with a standard dose-response curve using the Hill equation: […]
(§4) The Hill Slope was set to −1. Curves were fitted using a non-linear least square fit with the Levenberg-Marquardt algorithm.
On the technique in general: In qPCR the cycle at which signal appears reflects the starting amount.

The target in assay [2] is T2, FGFR3 (V555M) (Homo sapiens, UniProt P22607, V555M).
T2 construct: made in house; host or cells: E. coli derived from BL21, infected with T7 phage
Briefly: Kinase binding assay (kinase-tagged T7 phage, affinity beads, qPCR readout), FGFR3 (V555M). The method, then: as §1, §2, §3, §4

Assay [3] has as its target T3, FGFR3 (Homo sapiens, UniProt P22607).
T3 construct: made in house; host or cells: E. coli derived from BL21, infected with T7 phage
Briefly: Kinase binding assay (kinase-tagged T7 phage, affinity beads, qPCR readout), FGFR3. The method, then: as §1, §2, §3, §4

For assay [4], the target named is T4, FGFR2 (Homo sapiens, UniProt P21802).
T4 construct: made in house; host or cells: E. coli derived from BL21, infected with T7 phage
Briefly: Kinase binding assay (kinase-tagged T7 phage, affinity beads, qPCR readout), FGFR2. The method, then: as §1, §2, §3, §4

T4 sequence (P21802 22-821): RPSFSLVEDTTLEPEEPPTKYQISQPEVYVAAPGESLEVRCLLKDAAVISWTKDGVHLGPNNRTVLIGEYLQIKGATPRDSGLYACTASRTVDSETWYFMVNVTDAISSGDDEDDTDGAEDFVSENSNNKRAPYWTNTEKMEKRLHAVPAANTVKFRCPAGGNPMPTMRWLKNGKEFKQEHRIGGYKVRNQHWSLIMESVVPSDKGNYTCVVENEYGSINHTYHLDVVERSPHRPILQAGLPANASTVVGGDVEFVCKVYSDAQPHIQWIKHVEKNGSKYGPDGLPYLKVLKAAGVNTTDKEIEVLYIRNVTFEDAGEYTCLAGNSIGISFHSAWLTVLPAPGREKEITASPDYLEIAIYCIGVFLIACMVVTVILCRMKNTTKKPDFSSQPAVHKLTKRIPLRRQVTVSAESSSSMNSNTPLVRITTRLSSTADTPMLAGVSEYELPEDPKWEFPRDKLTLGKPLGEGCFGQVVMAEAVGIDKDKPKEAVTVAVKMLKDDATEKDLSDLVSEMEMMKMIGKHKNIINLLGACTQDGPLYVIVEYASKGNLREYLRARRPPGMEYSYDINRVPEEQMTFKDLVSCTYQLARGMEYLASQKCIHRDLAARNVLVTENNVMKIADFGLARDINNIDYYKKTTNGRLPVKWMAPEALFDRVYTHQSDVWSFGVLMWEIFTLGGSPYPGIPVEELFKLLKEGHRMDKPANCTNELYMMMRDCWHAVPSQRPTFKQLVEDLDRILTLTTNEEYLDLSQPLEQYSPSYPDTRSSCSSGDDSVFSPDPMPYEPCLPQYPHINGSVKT
T3 sequence (P22607 23-806): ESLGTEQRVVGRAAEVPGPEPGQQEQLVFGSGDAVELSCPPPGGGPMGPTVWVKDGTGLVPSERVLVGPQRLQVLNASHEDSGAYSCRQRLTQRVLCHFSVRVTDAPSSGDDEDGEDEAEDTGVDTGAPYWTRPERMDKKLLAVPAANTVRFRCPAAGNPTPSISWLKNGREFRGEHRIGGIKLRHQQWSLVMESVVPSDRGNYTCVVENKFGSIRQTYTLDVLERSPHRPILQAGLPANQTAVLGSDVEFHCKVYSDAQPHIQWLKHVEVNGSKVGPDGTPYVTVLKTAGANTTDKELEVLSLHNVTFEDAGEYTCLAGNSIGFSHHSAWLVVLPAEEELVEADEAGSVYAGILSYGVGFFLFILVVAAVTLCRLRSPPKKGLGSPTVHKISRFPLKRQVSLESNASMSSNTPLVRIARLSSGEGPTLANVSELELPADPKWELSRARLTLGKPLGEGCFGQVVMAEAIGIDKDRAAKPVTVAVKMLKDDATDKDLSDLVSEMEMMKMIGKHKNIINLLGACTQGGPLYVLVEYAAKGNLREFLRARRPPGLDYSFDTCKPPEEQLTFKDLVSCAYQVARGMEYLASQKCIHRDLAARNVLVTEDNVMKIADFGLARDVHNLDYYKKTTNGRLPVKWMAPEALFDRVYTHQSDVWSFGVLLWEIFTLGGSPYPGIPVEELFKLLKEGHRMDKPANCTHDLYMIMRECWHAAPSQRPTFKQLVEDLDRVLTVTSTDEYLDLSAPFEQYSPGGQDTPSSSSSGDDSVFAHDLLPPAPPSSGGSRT
T1 sequence (P11362 22-822): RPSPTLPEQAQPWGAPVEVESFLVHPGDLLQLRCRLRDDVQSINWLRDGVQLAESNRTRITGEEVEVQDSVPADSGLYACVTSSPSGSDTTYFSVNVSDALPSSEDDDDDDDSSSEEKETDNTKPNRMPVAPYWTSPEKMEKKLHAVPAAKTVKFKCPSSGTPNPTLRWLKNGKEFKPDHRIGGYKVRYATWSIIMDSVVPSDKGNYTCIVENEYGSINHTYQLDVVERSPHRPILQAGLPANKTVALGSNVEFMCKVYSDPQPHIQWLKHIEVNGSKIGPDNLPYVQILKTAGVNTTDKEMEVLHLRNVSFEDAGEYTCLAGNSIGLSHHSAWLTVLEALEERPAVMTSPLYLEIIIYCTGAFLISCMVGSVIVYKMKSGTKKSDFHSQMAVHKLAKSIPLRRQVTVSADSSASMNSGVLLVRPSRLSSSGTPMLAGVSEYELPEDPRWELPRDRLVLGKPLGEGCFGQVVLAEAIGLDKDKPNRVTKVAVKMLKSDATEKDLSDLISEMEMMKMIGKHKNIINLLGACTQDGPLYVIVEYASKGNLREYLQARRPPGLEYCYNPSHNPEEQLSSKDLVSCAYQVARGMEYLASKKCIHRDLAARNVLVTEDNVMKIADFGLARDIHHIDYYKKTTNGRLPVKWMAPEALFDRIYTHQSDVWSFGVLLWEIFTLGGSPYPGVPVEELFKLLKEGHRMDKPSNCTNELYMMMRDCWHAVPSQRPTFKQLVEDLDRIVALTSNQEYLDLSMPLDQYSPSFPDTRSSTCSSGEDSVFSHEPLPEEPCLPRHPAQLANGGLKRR
T2 sequence (P22607 23-806 V555M): as the sequence (P22607 23-806) above, with V533M counted along it

On to `C=CC(=O)Nc1ccc2c(c1)c(C)cn2-c1nc(Nc2cnn(CCOC(C)C)c2)ncc1F` [Example 203, N-[1-[5-fluoro-2-[[1-(2-isopropoxyethyl)pyrazol-4-yl]amino]pyrimidin-4-yl]-3-methyl-indol-5-yl]prop-2-enamide], for which the Kd in assay [1], in assay [2], in assay [3] and in assay [4] was 0.1 to 100 nM each time.

For `C=CC(=O)Nc1ccc2c(-c3ccnc(Nc4cn(CC(F)F)nc4C)n3)cn(C)c2c1` [Example 170, N-[3-[2-[[1-(2,2-difluoroethyl)-3-methyl-pyrazol-4-yl]amino]pyrimidin-4-yl]-1-methyl-indol-6-yl]prop-2-enamide], the Kd in assay [1] fell in the range of 100 to 250 nM; in assay [2], 0.1 to 100 nM; in assay [3], 0.1 to 100 nM; in assay [4] it was 0.1 to 100 nM.

Regarding `C=CC(=O)Nc1ccc2c(ccn2-c2nc(Nc3ccc(N4CCOCC4)c(F)c3)ncc2Cl)c1C` [Example 17, N-[1-[5-chloro-2-(3-fluoro-4-morpholino-anilino)pyrimidin-4-yl]-4-methyl-indol-5-yl]prop-2-enamide], the Kd in assay [1] was 250 to 1000 nM; in assay [2], 0.1 to 100 nM; in assay [3], 100 to 250 nM; in assay [4] it was 250 to 1000 nM.

For the compound `C=CC(=O)Nc1ccc2c(c1)c(C)cn2-c1nc(Nc2ccccc2OCC)ncc1C#N` [Example 39, N-[1-[5-cyano-2-(2-ethoxyanilino)pyrimidin-4-yl]-3-methyl-indol-5-yl]prop-2-enamide], the dissociation constant (Kd) in assay [1], in assay [2], in assay [3] and in assay [4] was greater than 1000 nM each time.

`C=CC(=O)Nc1ccc2c(c1)c(C)cn2-c1ccnc(Nc2cnn(C)c2)n1` [Example 79, N-[3-methyl-1-[2-[(1-methylpyrazol-4-yl)amino]pyrimidin-4-yl]indol-5-yl]prop-2-enamide]: the Kd in assay [1], in assay [2], in assay [3] and in assay [4] was 0.1 to 100 nM each time.

With `C=CC(=O)Nc1ccc2c(ccn2-c2nc(Nc3ccccc3OCC)ncc2Cl)c1` [Example 20, N-[1-[5-chloro-2-(2-ethoxyanilino)pyrimidin-4-yl]indol-5-yl]prop-2-enamide], the Kd in assay [1], in assay [2], in assay [3] and in assay [4] was greater than 1000 nM throughout.

`C=CC(=O)Nc1ccc2c(c1)c(C)cn2-c1nc(Nc2cn(C(C)(C)C#N)nc2C)ncc1F` [Example 159, N-[1-[2-[[1-(1-cyano-1-methyl-ethyl)-3-methyl-pyrazol-4-yl]amino]-5-fluoro-pyrimidin-4-yl]-3-methyl-indol-5-yl]prop-2-enamide]: the Kd in assay [1], in assay [2], in assay [3] and in assay [4] was 0.1 to 100 nM throughout.

With `C#CC(=O)Nc1ccc2c(c1)c(C)cn2-c1nc(Nc2ccnn2C)ncc1C` [Example 108, N-[3-methyl-1-[5-methyl-2-[(2-methylpyrazol-3-yl)amino]pyrimidin-4-yl]indol-5-yl]prop-2-ynamide], the Kd in assay [1], in assay [2], in assay [3] and in assay [4] was 0.1 to 100 nM in each case.

For `C=CC(=O)Nc1ccc2c(c1)c(C)cn2-c1nc(Nc2cc(C)sn2)ncc1F` [Example 161, N-[1-[5-fluoro-2-[(5-methylisothiazol-3-yl)amino]pyrimidin-4-yl]-3-methyl-indol-5-yl]prop-2-enamide], the Kd in assay [1], in assay [2], in assay [3] and in assay [4] was 0.1 to 100 nM each time.

As to `C=C(Cl)C(=O)Nc1cnc2c(c1)c(C)cn2-c1nc(Nc2ccn(C)n2)ncc1C` [Example 116, 2-chloro-N-[3-methyl-1-[5-methyl-2-[(1-methylpyrazol-3-yl)amino]pyrimidin-4-yl]pyrrolo[2,3-b]pyridin-5-yl]prop-2-enamide], the Kd in assay [1] was 100 to 250 nM; in assay [2] it was 0.1 to 100 nM; in assay [3] it was 0.1 to 100 nM; in assay [4], 0.1 to 100 nM.

Broadly, the Kd is the equilibrium constant for the complex coming apart.
